Source: patent US20170369492A1 (Takeda Pharmaceutical Company Limited, priority 2014, published 2017)

target: T1, human GPR43 (Homo sapiens, UniProt O15552); assay: Ca-Flux Functional Assay: Determination of Agonist/Positive Allosteric Modulator (PAM) Activity; assay type: cell-based; settings: CHO-K1 Gα16 cells stably expressing human GPR43; compound added in the presence of EC20 sodium acetate; intracellular Ca2+ by FLIPR; agonist/PAM activity not distinguished
T1 construct: expressed in transfected cells
T1 sequence (O15552 1-330): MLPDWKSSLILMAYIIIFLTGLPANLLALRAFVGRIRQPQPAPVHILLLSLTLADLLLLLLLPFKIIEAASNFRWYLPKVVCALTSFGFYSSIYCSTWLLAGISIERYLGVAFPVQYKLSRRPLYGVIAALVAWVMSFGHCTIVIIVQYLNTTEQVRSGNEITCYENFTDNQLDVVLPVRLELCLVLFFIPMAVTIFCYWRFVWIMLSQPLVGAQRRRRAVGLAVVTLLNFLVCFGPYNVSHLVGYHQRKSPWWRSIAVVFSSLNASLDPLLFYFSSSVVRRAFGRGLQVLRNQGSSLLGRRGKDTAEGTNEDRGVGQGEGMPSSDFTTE
Procedure, shortened: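 FLIPR calcium read in CHO-K1 Gα16 cells stably expressing human GPR43, loaded with Calcium 5 dye in HBSS/HEPES/probenecid/BSA for 1 h at 37 °C. Compounds were tested in 10-point half-log series from 10 μM, co-added with sodium acetate at its EC20. EC50 taken from duplicate-well curves, capturing agonist or PAM activity without distinction.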

| EC50 | Structure (SMILES) |
| --- | --- |
| 4560 nM | COc1ccc(S(=O)(=O)c2c(N)n(C3CCCCC3)c3nccnc23)cn1 [Example 115, 5-cyclohexyl-7-(6-methoxypyridine-3-sulfonyl)-5H-pyrrolo[2,3-b]pyrazin-6-amine] |
| 195 nM | Nc1c(S(=O)(=O)c2ccc(Cl)cc2)c2nccnc2n1C1CCCCC1 [Example 5, 7-[(4-chlorobenzene)sulfonyl]-5-cyclohexyl-5H-pyrrolo[2,3-b]pyrazin-6-amine] |
| 1550 nM | Nc1c(S(=O)(=O)N2CCC(C(F)(F)F)CC2)c2nccnc2n1C1CCCCC1 [Example 87, 5-cyclohexyl-7-[4-(trifluoromethyl)piperidine-1-sulfonyl]-5H-pyrrolo[2,3-b]pyrazin-6-amine] |
| 206 nM | COc1ccc(S(=O)(=O)c2c(N)n(C3CCCCC3)c3nccnc23)cc1Cl [Example 114, 7-[(3-chloro-4-methoxybenzene)-sulfonyl]-5-cyclohexyl-5H-pyrrolo[2,3-b]pyrazin-6-amine] |
| 471 nM | Nc1c(S(=O)(=O)NCCc2nccs2)c2nccnc2n1C1CCCCC1 [Example 103, 6-amino-5-cyclohexyl-N-[2-(1,3-thiazol-2-yl)ethyl]-5H-pyrrolo[2,3-b]pyrazine-7-sulfonamide] |
| 275 nM | Nc1c(S(=O)(=O)c2ccccc2)c2nccnc2n1[C@@H]1C[C@H]2CC[C@@H]1C2 (relative stereo) [Example 53, 5-((1R*,2R*,4S*)-bicyclo[2.2.1]heptan-2-yl)-7-(phenylsulfonyl)-5H-pyrrolo[2,3-b)pyrazin-6-amine] |
| 277 nM | Nc1c(S(=O)(=O)c2ccccc2)c2cc(Cl)nnc2n1C1CCCCC1 [Example 27, 5-(benzenesulfonyl)-3-chloro-7-cyclohexyl-7H-pyrrolo[2,3-c]pyridazin-6-amine] |
| 8350 nM | COC1CCN(S(=O)(=O)c2c(N)n(C3CCCCC3)c3nccnc23)C1 (centres unmarked) [Example 91, 5-cyclohexyl-7-(3-methoxypyrrolidine-1-sulfonyl)-5H-pyrrolo[2,3-b]pyrazin-6-amine] |
| 334 nM | CCC(C)NS(=O)(=O)c1c(N)n(C2CCCCC2)c2nccnc12 (centres unmarked) [Example 95, 6-amino-N-(butan-2-yl)-5-cyclohexyl-5H-pyrrrolo[2,3-b]pyrazine-7-sulfonamide] |
| 31 nM | CCOc1ncnc2c(S(=O)(=O)c3ccccc3)c(N)n(C3CCC(F)(F)CC3)c12 [Example 29, 7-(benzenesulfonyl)-5-(4,4-difluorocyclohexyl)-4-ethoxy-5H-pyrrolo[3,2-d]pyrimidin-6-amine] |
| 1190 nM | CC1(C)CCN(S(=O)(=O)c2c(N)n(C3CCCCC3)c3nccnc23)C1 [Example 75, 5-cyclohexyl-7-(3,3-dimethylpyrrrolidine-1-sulfonyl)-5H-pyrrolo[2,3-b]pyrazin-6-amine] |
| 5260 nM | Nc1c(S(=O)(=O)c2ccccc2)c2nccnc2n1CCc1ccccc1 [Example 46, 5-phenethyl-7-(phenylsulfonyl)-5H-pyrrolo[2,3-b]pyrazin-6-amine] |
| 3930 nM | Nc1c(S(=O)(=O)N2CC(N3CCCCC3)C2)c2nccnc2n1C1CCCCC1 [Example 100, 5-cyclohexyl-7-[3-(piperidin-1-yl)azetidine-1-sulfonyl]-5H-pyrrolo[2,3-b]pyrazin-6-amine] |

| Structure (SMILES) | EC50 |
| --- | --- |
| Nc1c(S(=O)(=O)N2C3CCC2CC(O)C3)c2nccnc2n1C1CCCCC1 (centres unmarked) [Example 104, 8-{6-amino-5-cyclohexyl-5H-pyrrolo[2,3-b]pyrazine-7-sulfonyl}-8-azabicyclo[3.2.1]octan-3-ol] | 3080 nM |
